Test systems include SK-MEL-28; NCI-H226; HL-60; COLO 205; EKVX; KM12; SR; SF-295; OVCAR-3; SK-MEL-2; SF-268; MDA-MB-435; SNB-19; TK-10; M14; OVCAR-8; MDA-MB-231; MOLT-4; SK-MEL-5; RPMI-8226.
Assay in all cases: NCI-60 cell line screen, 48 h

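Compound exposure: 48 hours, 5 concentrations, 96-well plates. The concentration for 50% growth inhibition is given as GI50.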 Activity calls are given as the source filed them. No stated cut-off is given here; in the data, active = GI50 up to about 1.1 µM and inactive = higher.

As to `OCN(CO)c1ccc2c(c1)Cc1cc(F)ccc1-2`, the GI50 with SK-MEL-28 was 24 µM (inactive); in the experiment on NCI-H226, 15.7 µM (inactive); with HL-60, 29.1 µM (inactive); in the experiment with COLO 205 it was 12.4 µM (inactive); in the experiment on EKVX it was 14.7 µM (inactive); in the experiment with KM12, 17.8 µM (inactive). The GI50 was 22.6 µM (inactive) in the experiment with SR; 15.3 µM (inactive) with SF-295; 13.9 µM (inactive) in the experiment on OVCAR-3; 21 µM (inactive) in the experiment with SK-MEL-2; 23.8 µM (inactive) in the experiment with SF-268; 18.1 µM (inactive) in the experiment with MDA-MB-435. Also, the GI50 with SNB-19 was 17.9 µM (inactive); in the experiment on TK-10, 18.7 µM (inactive); with M14, 21 µM (inactive); in the experiment with OVCAR-8, 19.7 µM (inactive); in the experiment with MDA-MB-231, 16.4 µM (inactive); in the experiment on MOLT-4, 25.2 µM (inactive). Also, the GI50 in the experiment with SK-MEL-5 is 11.2 µM (inactive).
For `CC(C)(C)[Si](C)(C)OCC1OC(n2ccc(=O)[nH]c2=O)C(O[Si](C)(C)C(C)(C)C)/C1=N/O` (configuration not stated), the GI50 is 3.3 µM (inactive) in the experiment on SK-MEL-28; 2.82 µM (inactive) in the experiment with NCI-H226; 2.42 µM (inactive) in the experiment with COLO 205; 4.13 µM (inactive) in the experiment on EKVX; 3.54 µM (inactive) in the experiment on KM12; 2.71 µM (inactive) in the experiment on SR. The GI50 with SF-295 was 4.74 µM (inactive); in the experiment on OVCAR-3, 8.67 µM (inactive); in the experiment with SK-MEL-2, 3.21 µM (inactive); in the experiment on MDA-MB-435, 3.11 µM (inactive); in the experiment with SNB-19, 4.49 µM (inactive); in the experiment on TK-10, 6.68 µM (inactive). Besides, the GI50 was 3.33 µM (inactive) in the experiment on M14; 3.33 µM (inactive) with OVCAR-8; 12.4 µM (inactive) in the experiment with MDA-MB-231; 2.73 µM (inactive) in the experiment with RPMI-8226; 2.43 µM (inactive) in the experiment with MOLT-4; 2.45 µM (inactive) in the experiment on SK-MEL-5.
Regarding `CO[C@]12CC(=O)C3(C(C[C@H]4CC5CCC6=CC(=O)CC[C@]6(OC(C)=O)C5C[C@@]43C)C1)C1C[C@H]3[C@@H]4CCC5=CC(=O)CC[C@]5(OC(C)=O)[C@H]4CC[C@]3(C)C12` (some centres not stated), the GI50 with SK-MEL-28 was > 100 µM (inactive); with HL-60 it was > 100 µM (inactive); in the experiment with COLO 205, 19.7 µM (inactive); in the experiment on EKVX, > 100 µM (inactive); in the experiment with SR, > 100 µM (inactive); in the experiment with SF-295 it was > 100 µM (inactive). Also, the GI50 with OVCAR-3, in the experiment with SK-MEL-2, with SF-268, in the experiment with MDA-MB-435, with SNB-19 and in the experiment with TK-10 was > 100 µM (inactive) each time. In addition, the GI50 in the experiment with M14 is > 100 µM (inactive); with OVCAR-8, > 100 µM (inactive); in the experiment on MDA-MB-231, 27.5 µM (inactive); in the experiment on RPMI-8226, > 100 µM (inactive); in the experiment on MOLT-4 it was > 100 µM (inactive); with SK-MEL-5 it was 39.4 µM (inactive).
As to `CC(C)(C)C1=CC(=CC=C2C=CN(CCCCCCCCCCCO)C=C2)C=C(C(C)(C)C)C1=O`, the GI50 with SK-MEL-28 was 1.78 µM (inactive); with HL-60 it was 1.72 µM (inactive); in the experiment with COLO 205, 1.69 µM (inactive); with EKVX it was 1.96 µM (inactive); in the experiment on KM12, 1.83 µM (inactive); in the experiment with SR, 0.401 µM (active). Further, the GI50 was 1.38 µM (inactive) with SF-295; 1.01 µM (active) in the experiment on OVCAR-3; 1.83 µM (inactive) with SK-MEL-2; 1.57 µM (inactive) with SF-268; 1.7 µM (inactive) in the experiment with MDA-MB-435; 1.58 µM (inactive) in the experiment with SNB-19. In addition, the GI50 in the experiment on TK-10 was 1.5 µM (inactive); in the experiment on M14, 1.75 µM (inactive); in the experiment with OVCAR-8, 1.31 µM (inactive); in the experiment with MDA-MB-231, 1.63 µM (inactive); in the experiment with RPMI-8226 it was 0.338 µM (active); with MOLT-4 it was 1.32 µM (inactive). The GI50 with SK-MEL-5 is 1.73 µM (inactive).
Turning to `Cc1ccc(C)c(COCCOCn2cc(N3CCOCC3)c(=O)[nH]c2=O)c1`, the GI50 in the experiment on SK-MEL-28 is > 100 µM (inactive); in the experiment with NCI-H226 it was > 100 µM (inactive); in the experiment on HL-60, 3.63 µM (inactive); in the experiment with COLO 205 it was > 100 µM (inactive); in the experiment with EKVX, > 100 µM (inactive); in the experiment on KM12, > 100 µM (inactive). Also, the GI50 in the experiment on SR, in the experiment with SF-295, in the experiment with SK-MEL-2, in the experiment on SF-268, with MDA-MB-435 and in the experiment on SNB-19 was > 100 µM (inactive) throughout. Further, the GI50 in the experiment on TK-10, with M14, in the experiment with OVCAR-8, with MDA-MB-231 and in the experiment with MOLT-4 was > 100 µM (inactive) throughout.
For `COc1nc2ccc(COc3ccc(C(=O)O)cc3)cc2nc1OC`, the GI50 in the experiment with SK-MEL-28 is 66.4 µM (inactive); in the experiment on NCI-H226, 78 µM (inactive); in the experiment with HL-60 it was 53.8 µM (inactive); in the experiment with COLO 205 it was > 100 µM (inactive); in the experiment with EKVX, > 100 µM (inactive); with KM12, > 100 µM (inactive). Moreover, the GI50 was 41.4 µM (inactive) in the experiment with SR; 32.9 µM (inactive) with SF-295; > 100 µM (inactive) in the experiment on OVCAR-3; > 100 µM (inactive) in the experiment on SK-MEL-2; 82 µM (inactive) in the experiment with SF-268; 33.7 µM (inactive) in the experiment on MDA-MB-435. Moreover, the GI50 was > 100 µM (inactive) in the experiment with SNB-19; 66.1 µM (inactive) in the experiment on M14; 36.4 µM (inactive) in the experiment on OVCAR-8; > 100 µM (inactive) in the experiment on MDA-MB-231; > 100 µM (inactive) in the experiment with MOLT-4; > 100 µM (inactive) in the experiment with SK-MEL-5.
As to `C/C(=N\Nc1nc2ccccc2o1)c1ccc2ccccc2n1`, the GI50 in the experiment on SK-MEL-28 is 3.96 µM (inactive); in the experiment with HL-60 it was 2.33 µM (inactive); in the experiment with COLO 205 it was 3.85 µM (inactive); with EKVX it was 0.458 µM (active); with KM12 it was 3.48 µM (inactive); in the experiment on SR, 0.579 µM (active). Also, the GI50 is 3.72 µM (inactive) with SF-295; 0.52 µM (active) in the experiment on OVCAR-3; 1.73 µM (inactive) in the experiment with SK-MEL-2; 5.06 µM (inactive) with SF-268; 6.35 µM (inactive) with MDA-MB-435; 8.26 µM (inactive) in the experiment with SNB-19. In addition, the GI50 in the experiment with TK-10 was 6.92 µM (inactive); with M14, 2.57 µM (inactive); with OVCAR-8, 2.89 µM (inactive); with MDA-MB-231, 2.98 µM (inactive); in the experiment on RPMI-8226, 2.69 µM (inactive); in the experiment on MOLT-4, 1.97 µM (inactive). For the same compound, in the experiment on SK-MEL-5, the GI50 was 3.15 µM (inactive).
For the compound `COc1cc2c(cc1OCCCNC(=O)c1cc3ccccc3[nH]1)N=C[C@@H]1CCCN1C2=O`, the GI50 in the experiment with SK-MEL-28 is 0.318 µM (active); in the experiment on NCI-H226 it was 0.313 µM (active); in the experiment with COLO 205, 0.391 µM (active); in the experiment on EKVX, 1.02 µM (active); with KM12, 0.241 µM (active); with SR, 0.19 µM (active). Moreover, the GI50 in the experiment on SF-295 is 0.405 µM (active); with OVCAR-3 it was 0.306 µM (active); in the experiment with SK-MEL-2 it was 0.179 µM (active); with SF-268 it was 0.082 µM (active); in the experiment on MDA-MB-435, 0.243 µM (active); in the experiment with SNB-19, 0.445 µM (active). The GI50 in the experiment with TK-10 is 0.359 µM (active); with M14, 0.305 µM (active); with OVCAR-8 it was 0.301 µM (active); with MDA-MB-231, 0.466 µM (active); in the experiment on RPMI-8226 it was 0.474 µM (active); with MOLT-4, 0.125 µM (active). Further, in the experiment with SK-MEL-5, the GI50 was 0.195 µM (active).

(Values after ChEMBL document CHEMBL1201862, “PubChem BioAssay data set” (2004).)
